Results: US20260070902A1, “SULFONYL DERIVATIVES AS CCR6 INHIBITORS” (Hoffmann-La Roche Inc., priority 2022, published 2026)

Key:
Type in all cases: cell-based
Human CD4+ T cells = test: CD4+ T cells chemotaxis assay towards CCL20; details: Homo sapiens, CD4+ T cell, 3 h, relative -Log IC50, human CD4+ T cells stimulated with anti-CD3 and anti-CD28, migration towards 150 ng/ml CCL20
Summary of the method: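 Donor cells were stimulated overnight with anti-CD3/anti-CD28, then preincubated with compound for 30 min at 37° C (0.2% DMSO final). Migration through […]-pore Transwells toward 150 ng/ml CCL20 ran for 3 h at 37° C. Migrated cells were counted by CellTiter Glo, and relative −Log IC50 came from a four-parameter fit of % inhibition.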

human CCR6 [1] = molecular target: T1, human CCR6 (Homo sapiens, UniProt P51684); test: CHO-K1 CCR6 chemotaxis assay towards CCL20; details: relative -Log IC50; CHO-K1 cells overexpressing human CCR6; migration towards 100 ng/ml CCL20; 4 h
T1 sequence (P51684 1-374): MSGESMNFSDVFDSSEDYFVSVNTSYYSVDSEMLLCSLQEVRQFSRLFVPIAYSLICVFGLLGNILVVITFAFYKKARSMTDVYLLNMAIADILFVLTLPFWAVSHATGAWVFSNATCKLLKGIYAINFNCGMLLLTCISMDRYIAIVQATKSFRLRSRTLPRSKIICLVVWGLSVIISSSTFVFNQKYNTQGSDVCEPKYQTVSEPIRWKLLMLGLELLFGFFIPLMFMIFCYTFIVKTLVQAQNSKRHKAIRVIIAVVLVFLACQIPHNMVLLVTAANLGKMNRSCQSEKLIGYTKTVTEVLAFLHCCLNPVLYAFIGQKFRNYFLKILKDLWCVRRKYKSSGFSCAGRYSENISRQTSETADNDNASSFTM
Summary of the method: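 Human CCR6-overexpressing CHO-K1 cells (2*10^6 cells/ml) were preincubated 30 min at 37 °C with compound (0.2% DMSO), then allowed to migrate 4 h through 8 µm Transwell pores toward 100 ng/ml CCL20. Migrated cells were counted by CellTiter Glo. −Log IC50 came from four-parameter fits normalised to DMSO without/with CCL20.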

human CCR6 [2] = molecular target: T1, human CCR6; test: Human CCR6-CRE reporter assay; design: The second construct contained the open reading frame of human CCR6 in the pUNO1 backbone; host or cells: 293FT cells; details: relative -Log IC50; 293FT cells transfected with human CCR6 and CRE-luciferase reporter; 6 μM Forskolin, 6 nM CCL20; 5 h
Summary of the method: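 293FT cells transiently co-transfected with human CCR6 and a CRE-luc2P reporter, used 48 h later. Compounds incubated with cells in medium containing 6 μM Forskolin and 6 nM CCL20 (assay-medium levels), 0.1% DMSO final, 5 h at 37° C; luminescence read, relative −Log IC50 from four-parameter fit.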

IC50 (Human CD4+ T cells) | IC50 (human CCR6 [1]) | IC50 (human CCR6 [2]) | Structure (SMILES)
1 nM | 7.94 nM | 20 nM | CC(C)c1nnc2ccc(-c3ccc(S(=O)(=O)N4CCC(Nc5ccc(S(F)(F)(F)(F)F)cn5)CC4)cc3)cn12 [Example 172, 5-(pentafluoro-λ^6-sulfanyl)-N-(1-{4-[3-(propan-2-yl)-[1,2,4]triazolo[4,3-a]pyridin-6-yl]benzenesulfonyl}piperidin-4-yl)pyridin-2-amine]
2.51 nM | 3.98 nM | 31.6 nM | O=S(=O)(c1ccc(-c2ccc3nccn3c2)cc1)N1CCC(Nc2ccc(S(F)(F)(F)(F)F)cn2)CC1 [Example 173, N-[1-(4-{imidazo[1,2-a]pyridin-6-yl}benzenesulfonyl)piperidin-4-yl]-5-(pentafluoro-λ^6-sulfanyl)pyridin-2-amine]
2.51 nM | 5.01 nM | 25.1 nM | Cc1nnc2ccc(-c3ccc(S(=O)(=O)N4CCC(Nc5ccc(S(F)(F)(F)(F)F)cn5)CC4)cc3)cn12 [Example 174, N-[1-(4-{3-methyl-[1,2,4]triazolo[4,3-a]pyridin-6-yl}benzenesulfonyl)piperidin-4-yl]-5-(pentafluoro-λ^6-sulfanyl)pyridin-2-amine]
5.01 nM | 10 nM | 20 nM | NC(=O)c1cc(-c2ccc(S(=O)(=O)N3CCC(Nc4ccc(S(F)(F)(F)(F)F)cn4)CC3)cc2)ccn1 [Example 175, 4-{4-[(4-{[5-(pentafluoro-λ^6-sulfanyl)pyridin-2-yl]amino}piperidin-1-yl)sulfonyl]phenyl}pyridine-2-carboxamide]
12.6 nM | 79.4 nM | 79.4 nM | NC(=O)c1cc(-c2ccc(S(=O)(=O)N3CCC(Nc4ccc(S(F)(F)(F)(F)F)cc4)CC3)cc2)ccn1 [Example 177, 4-{4-[(4-{[4-(pentafluoro-λ^6-sulfanyl)phenyl]amino}piperidin-1-yl)sulfonyl]phenyl}pyridine-2-carboxamide]
7.94 nM | 25.1 nM | 100 nM | O=S(=O)(c1ccc(-c2ccc3nccn3c2)cc1)[C@H]1CC[C@H](Nc2ccc(S(F)(F)(F)(F)F)cn2)CC1 [Example 180, 5-(pentafluoro-λ^6-sulfanyl)-N-[trans-4-(4-{imidazo[1,2-a]pyridin-6-yl}benzenesulfonyl)cyclohexyl]pyridin-2-amine]

Second part, the molecule before the results:

Structure (SMILES) | IC50 (Human CD4+ T cells) | IC50 (human CCR6 [1]) | IC50 (human CCR6 [2])
Cc1n[nH]c2ccc(-c3ccc(S(=N)(=O)[C@H]4CC[C@H](Nc5ccc(S(F)(F)(F)(F)F)cc5)CC4)cc3)cc12 (stereo partly drawn) [Example 86, [4-(3-methyl-1H-indazol-5-yl)phenyl][trans-4-{[4-(pentafluoro-λ^6-sulfanyl)phenyl]Amino}cyclohexyl](imino)-λ^6-sulfanone] | 79.4 nM | 79.4 nM | 126 nM
N=S(=O)(c1ccc(-c2ccc3nccn3c2)cc1)[C@H]1CC[C@H](Nc2ccc(S(F)(F)(F)(F)F)cc2)CC1 (stereo partly drawn) [Example 87, (4-{imidazo[1,2-a]pyridin-6-yl}phenyl)[trans-4-{[4-(pentafluoro-λ^6-sulfanyl)phenyl]Amino}cyclohexyl](imino)-λ^6-sulfanone] | 158 nM | 126 nM | 200 nM
Cc1cnc2ccc(-c3ccc(S(=N)(=O)[C@H]4CC[C@H](Nc5ccc(S(F)(F)(F)(F)F)cc5)CC4)cc3)cn12 (stereo partly drawn) [Example 89, (4-{3-methylimidazo[1,2-a]pyridin-6-yl}phenyl)[trans-4-{[4-(pentafluoro-λ^6-sulfanyl)phenyl]Amino}cyclohexyl](imino)-λ^6-sulfanone] | 39.8 nM | 79.4 nM | 158 nM
N#Cc1cnc2ccc(-c3ccc(S(=N)(=O)[C@H]4CC[C@H](Nc5ccc(S(F)(F)(F)(F)F)cc5)CC4)cc3)cn12 (stereo partly drawn) [Example 90, 6-(4-{[trans-4-{[4-(pentafluoro-λ^6-sulfanyl)phenyl]Amino}cyclohexyl]sulfonimidoyl}phenyl)imidazo[1,2-a]pyridine-3-carbonitrile] | 25.1 nM | 63.1 nM | 158 nM
CC(C)c1nnc2cnc(-c3ccc(S(=N)(=O)[C@H]4CC[C@H](Nc5ccc(S(F)(F)(F)(F)F)cc5)CC4)cc3)cn12 (stereo partly drawn) [Example 162, {4-[3-(propan-2-yl)-[1,2,4]triazolo[4,3-a]pyrazin-6-yl]phenyl}[trans-4-{[4-(pentafluoro-λ^6-sulfanyl)phenyl]amino}cyclohexyl](imino)-λ^6-sulfanone] | 79.4 nM | 63.1 nM | 100 nM
Cc1nnc2cnc(-c3ccc(S(=N)(=O)[C@H]4CC[C@H](Nc5ccc(S(F)(F)(F)(F)F)cc5)CC4)cc3)cn12 (stereo partly drawn) [Example 170, (4-{3-methyl-[1,2,4]triazolo[4,3-a]pyrazin-6-yl}phenyl) [trans-4-{[4-(pentafluoro-λ^6-sulfanyl)phenyl]amino}cyclohexyl](imino)-λ^6-sulfanone] | 10000 nM | 2000 nM | 501 nM
O=S(=O)(c1ccc(-c2ccc3nnc(C(F)F)n3c2)cc1)[C@H]1CC[C@H](Nc2ccc(S(F)(F)(F)(F)F)cc2)CC1 [Example 176, 4-(pentafluoro-λ^6-sulfanyl)-N-[trans-4-{4-[3-(difluoromethyl)-[1,2,4]triazolo[4,3-a]pyridin-6-yl]benzenesulfonyl}cyclohexyl]aniline] | 1.58 nM | 10 nM | 126 nM
CC(C)c1nnc2ccc(-c3ccc(S(=O)(=O)[C@H]4CC[C@H](Nc5ccc(S(F)(F)(F)(F)F)cn5)CC4)cc3)cn12 [Example 178, 5-(pentafluoro-λ^6-sulfanyl)-N-[trans-4-{4-[3-(propan-2-yl)-[1,2,4]triazolo[4,3-a]pyridin-6-yl]benzenesulfonyl}cyclohexyl]pyridin-2-amine] | 0.794 nM | 10 nM | 63.1 nM
Cc1nnc2ccc(-c3ccc(S(=O)(=O)[C@H]4CC[C@H](Nc5ccc(S(F)(F)(F)(F)F)cn5)CC4)cc3)cn12 [Example 179, 5-(pentafluoro-λ^6-sulfanyl)-N-[trans-4-(4-{3-methyl-[1,2,4]triazolo[4,3-a]pyridin-6-yl}benzenesulfonyl)cyclohexyl]pyridin-2-amine] | 6.31 nM | 10 nM | 79.4 nM
